Earlier results in US7892523B2, “Cosmetic process for the treatment of the skin with sun-protection products and sun-protection products combination” (Coty B.V., priority 2004, dated 2011).

Details: known RPFs of standard antioxidants / usual formulations

Compound	radical protection factor (RPF)
Cc1c(C)c2c(c(C)c1O)CCC(C)(CCCC(C)CCCC(C)CCCC(C)C)O2 (racemic) [DL-α-tocopherol]	41,200 ×10^14 radicals/mg
CC(=O)OC/C=C(C)/C=C/C=C(C)/C=C/C1=C(C)CCCC1(C)C [all-trans-retinol acetate]	196 ×10^14 radicals/mg
CC1=C(/C=C/C(C)=C/C=C/C(C)=C/CO)C(C)(C)CCC1 [all-trans-retinol]	827 ×10^14 radicals/mg
CC(=O)Oc1c(C)c(C)c2c(c1C)CCC(C)(CCC[C@H](C)CCC[C@H](C)CCCC(C)C)O2 (stereo partly drawn) [α-tocopherol acetate]	48 ×10^14 radicals/mg
